One experiment deals with T1, AmiR (Caulobacter vibrioides, UniProt A0A0H3CAA9).
T1 construct: gene CCNA_02650; His6-SUMO fusion expressed in E. coli Rosetta(DE3)pLysS, tag cut by SUMO protease
The experiment is described as follows: HPLC of reaction products. The class given is biochemical. To be noted: 20 mM HEPES-NaOH, 50 mM NaCl, 1 mM MgCl2, pH 7.5, 37 °C, 16 hr; mixture of anhydro-muropeptides from Slt70-digested sacculi.

A further experiment addresses T2, NagZ (Caulobacter vibrioides, UniProt A0A0H3C9G9).
T2 construct: gene CCNA_02085; His6-SUMO fusion expressed in E. coli Rosetta(DE3)pLysS, tag cut by SUMO protease
In words: preincubation with NagZ, then coupled AmiR step and LC-MS. The class given is biochemical. To be noted: 10 µM NagZ, 50 mM HEPES, 200 mM NaCl, 10% glycerol, pH 7.2, 37 °C, 16 hr.

For a further experiment, the target named is T3, PBP3 (Caulobacter vibrioides, UniProt B8H0A0).
T3 construct: gene ftsI; native protein in crude membrane fraction, gel band
T3 sequence (B8H0A0 1-589): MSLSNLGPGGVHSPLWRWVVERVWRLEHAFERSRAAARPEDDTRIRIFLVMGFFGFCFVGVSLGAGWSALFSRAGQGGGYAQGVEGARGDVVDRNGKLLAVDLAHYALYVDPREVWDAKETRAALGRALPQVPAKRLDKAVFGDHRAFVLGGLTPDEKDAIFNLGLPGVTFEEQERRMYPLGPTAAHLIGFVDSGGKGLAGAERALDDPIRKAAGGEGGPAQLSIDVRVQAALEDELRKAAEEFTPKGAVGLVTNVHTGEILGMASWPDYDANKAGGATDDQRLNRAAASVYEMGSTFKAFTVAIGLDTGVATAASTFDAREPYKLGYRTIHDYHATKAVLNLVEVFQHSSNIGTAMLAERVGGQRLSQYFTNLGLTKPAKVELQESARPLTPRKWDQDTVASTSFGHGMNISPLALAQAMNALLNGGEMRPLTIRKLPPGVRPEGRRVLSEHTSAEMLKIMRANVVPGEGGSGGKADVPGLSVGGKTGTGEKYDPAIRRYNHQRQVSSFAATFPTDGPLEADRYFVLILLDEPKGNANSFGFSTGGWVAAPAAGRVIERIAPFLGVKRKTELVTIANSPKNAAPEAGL
In words: competition with bocillin-FL labelling, SDS-PAGE fluorescence. It is filed as cell-based. To be noted: covalent, crude membranes in PBS.

The target of another experiment is T4, CrbA (Caulobacter vibrioides, UniProt A0A0H3C8K5).
T4 construct: native protein in crude membrane fraction, gel band
T4 sequence (A0A0H3C8K5 entry or part of it): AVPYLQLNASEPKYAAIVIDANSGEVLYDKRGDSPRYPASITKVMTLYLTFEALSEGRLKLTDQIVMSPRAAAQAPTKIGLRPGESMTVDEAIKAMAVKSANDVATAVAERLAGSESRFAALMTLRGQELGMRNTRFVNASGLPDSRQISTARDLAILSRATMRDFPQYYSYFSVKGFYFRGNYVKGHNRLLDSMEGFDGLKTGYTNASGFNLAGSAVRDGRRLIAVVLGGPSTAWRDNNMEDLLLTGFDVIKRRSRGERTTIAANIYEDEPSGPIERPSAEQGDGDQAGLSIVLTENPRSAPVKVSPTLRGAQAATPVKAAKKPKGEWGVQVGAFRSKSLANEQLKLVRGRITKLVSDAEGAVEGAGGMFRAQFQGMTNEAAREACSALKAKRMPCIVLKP
The description is as above. It is filed as cell-based. To be noted: covalent; crude membranes in PBS, 1-100 µg/mL ampicillin for 2 hr at room temperature, active-site serine.

T1 sequence (A0A0H3CAA9 entry or part of it): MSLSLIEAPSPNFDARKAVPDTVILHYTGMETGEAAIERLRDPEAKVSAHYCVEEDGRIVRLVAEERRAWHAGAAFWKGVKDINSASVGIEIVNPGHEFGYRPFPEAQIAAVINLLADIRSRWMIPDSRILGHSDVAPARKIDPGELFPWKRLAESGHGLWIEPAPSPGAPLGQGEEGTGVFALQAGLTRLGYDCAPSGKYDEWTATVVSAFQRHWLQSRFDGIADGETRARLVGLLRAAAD
T2 sequence (A0A0H3C9G9 entry or part of it): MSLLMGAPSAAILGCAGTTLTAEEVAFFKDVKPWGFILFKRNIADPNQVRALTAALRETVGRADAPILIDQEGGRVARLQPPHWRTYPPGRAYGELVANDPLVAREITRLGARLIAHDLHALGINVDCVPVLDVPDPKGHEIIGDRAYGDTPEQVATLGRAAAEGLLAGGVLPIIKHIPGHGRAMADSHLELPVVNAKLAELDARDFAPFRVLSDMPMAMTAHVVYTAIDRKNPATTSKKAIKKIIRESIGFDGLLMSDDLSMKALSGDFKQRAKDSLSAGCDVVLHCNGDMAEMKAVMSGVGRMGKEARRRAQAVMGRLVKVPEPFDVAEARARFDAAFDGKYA

As to `CC(=O)N[C@H]1[C@H](O[C@H]2[C@H](O[C@H](C)C(=O)N[C@@H](C)C(=O)N[C@H](CCC(=O)N[C@@H](CCC[C@@H](N)C(=O)O)C(=O)N[C@H](C)C(=O)O)C(=O)O)[C@@H](NC(C)=O)[C@@H]3OC[C@H]2O3)O[C@H](CO)[C@@H](O)[C@@H]1O` [GlcNAc–anhMurNAc-tetrapeptide], at AmiR, the “HPLC of reaction products” value is listed as “AmiR efficiently hydrolyzed tetrapeptide-containing fragments”. The “preincubation with NagZ, then coupled AmiR step and LC-MS” value on NagZ is “substrate anhMurNAc-tetrapeptide, generated by preincubating purified GlcNAc–anhMurNAc-tetrapeptide with NagZ”.
In the case of `CC1=C(C(=O)O)N2C(=O)[C@@H](NC(=O)[C@H](N)c3ccccc3)[C@H]2SC1` [cephalexin], the “competition with bocillin-FL labelling, SDS-PAGE fluorescence” value on PBP3 (5 µg/mL cefalexin for 2 hr at room temperature) is “The labeling of PBP3 and some bifunctional PBPs was also abolished by preincubation with cephalexin”.
On to `CC1(C)S[C@@H]2[C@H](NC(=O)[C@H](N)c3ccccc3)C(=O)N2[C@H]1C(=O)O` [ampicillin], for which the “competition with bocillin-FL labelling, SDS-PAGE fluorescence” value is recorded as “Among the ampicillin targets identified were the essential, cell division-specific monofunctional transpeptidase PBP3” at PBP3 (1-100 µg/mL ampicillin for 2 hr at room temperature, active-site serine) and “all but one of them (PbpX) remained unlabeled” on CrbA.
